Experimental data as given in patent publication US20200046641A1, “LIPOSOMES FOR THE TREATMENT OF OCULAR DISEASES” (TDC Technology Dedicated to Care srl, priority 2018, published 2020).

Tested on: chorioallantoic membrane (CAM) of 10 days embryonated eggs
Assay: Ocular irritation by HET CAM test
Parameters: species or system hen
Conditions: 0.3 ml applied on CAM; bleeding, vasoconstriction, clotting
Source text: The in vitro test described in the present example has been carried out in order to evaluate if the ocular topical administration of the liposomes could cause irritation to the eye. To such purpose, the in vitro HET CAM test as described in […]-Recommended Test Method Protocol has been carried out: Hen's Egg Test-Chorioallantoic Membrane (HET-CAM) Test Method. The HET CAM test has been carried out by observing the irritation effects (bleeding, vasoconstriction and clotting) induced on the chorioallantoic membrane (CAM) of 10 days embryonated eggs by applying 0.3 ml of liposomes under test and calculating the ocular irritation index (“OII”) according to the formula described in Table 6. [table] The liposomes under examination in the present test are F1 and F2 liposomes. By means of the same method, the following controls have been also tested: SDS 1% (positive control with slow irritation), 0.1 N NaOH (positive control with fast irritation) and NaCl 0.9% (negative control). The embryonated eggs for this test have been obtained by the […]. farm, Tarragona, Spain. The eggs are kept at a temperature of 12±1° C. for at least 24 hours before placing them into the incubator at controlled temperature (37.8° C.) and humidity (50-60%) during the incubation days. The data have been analyzed as mean ±standard deviation at the moment when the injury occurred (n=3/group).

Row | SMILES | Irritating effects (HET CAM)
1 | [Na+].[OH-] [0.1 N NaOH, NaOH] | irritating effects
2 | CCCCCCCCCCCCOS(=O)(=O)[O-].[Na+] [SDS 1%, SDS] | irritating effects
